Patent US20230192701A1, “BICYCLIC KINASE INHIBITORS AND USES THEREOF” (iOmx Therapeutics AG, priority 2020, published 2023)

Experiments:
SIK2 = SIK2 (Homo sapiens, UniProt Q9H0K1); test: radiometric protein kinase assay (33PanQinase Activity Assay), SIK2; format: biochemical; conditions: for IC50: ATP 1.0 μM, substrate RBER-CHKtide; for inhibiting SIK2 compared to PY1: in words
Experimental: (§1) The IC50s of the compounds against the SIK family of protein-serine/threonine kinases (SIK2 and SIK3) were determined as followed. Briefly, a radiometric protein kinase assay (33PanQinase® Activity Assay) was used for measuring the kinase activity of the two protein kinases. The kinase assays were performed in 96-well FlashPlates™ from PerkinElmer (Boston, Mass., USA) in a 50 uL reaction volume. The reaction cocktail was pipetted in four steps in the following order: • […] (standard buffer/[gamma-33P]-ATP) • 10 uL of ATP solution (in water) • 5 uL of test compound (in 10% DMSO) • 20 uL enzyme/substrate mix
(§2) The following amounts of enzyme and applicable substrate were used per well:
(§3) The reaction cocktails were incubated at 30 °C for 60 minutes. The reaction was stopped with 50 uL of 2% (v/v) H3PO4, plates were aspirated and washed two times with 200 μL 0.9% (w/v) NaCl. Incorporation of 33Pi was determined with a microplate scintillation counter (Microbeta, Wallac). All assays were performed with a BeckmanCoulter/SAGIAN™ Core System.

SIK3 = SIK3 (Homo sapiens, UniProt Q9Y2K2); test: radiometric protein kinase assay (33PanQinase Activity Assay), SIK3; format: biochemical; conditions: for IC50: ATP 1.0 μM, substrate RBER-CHKtide; for inhibiting SIK3 compared to PY1 / selectivity towards SIK3 over SIK2: in words
SIK3, sequence (Q9Y2K2 whole entry): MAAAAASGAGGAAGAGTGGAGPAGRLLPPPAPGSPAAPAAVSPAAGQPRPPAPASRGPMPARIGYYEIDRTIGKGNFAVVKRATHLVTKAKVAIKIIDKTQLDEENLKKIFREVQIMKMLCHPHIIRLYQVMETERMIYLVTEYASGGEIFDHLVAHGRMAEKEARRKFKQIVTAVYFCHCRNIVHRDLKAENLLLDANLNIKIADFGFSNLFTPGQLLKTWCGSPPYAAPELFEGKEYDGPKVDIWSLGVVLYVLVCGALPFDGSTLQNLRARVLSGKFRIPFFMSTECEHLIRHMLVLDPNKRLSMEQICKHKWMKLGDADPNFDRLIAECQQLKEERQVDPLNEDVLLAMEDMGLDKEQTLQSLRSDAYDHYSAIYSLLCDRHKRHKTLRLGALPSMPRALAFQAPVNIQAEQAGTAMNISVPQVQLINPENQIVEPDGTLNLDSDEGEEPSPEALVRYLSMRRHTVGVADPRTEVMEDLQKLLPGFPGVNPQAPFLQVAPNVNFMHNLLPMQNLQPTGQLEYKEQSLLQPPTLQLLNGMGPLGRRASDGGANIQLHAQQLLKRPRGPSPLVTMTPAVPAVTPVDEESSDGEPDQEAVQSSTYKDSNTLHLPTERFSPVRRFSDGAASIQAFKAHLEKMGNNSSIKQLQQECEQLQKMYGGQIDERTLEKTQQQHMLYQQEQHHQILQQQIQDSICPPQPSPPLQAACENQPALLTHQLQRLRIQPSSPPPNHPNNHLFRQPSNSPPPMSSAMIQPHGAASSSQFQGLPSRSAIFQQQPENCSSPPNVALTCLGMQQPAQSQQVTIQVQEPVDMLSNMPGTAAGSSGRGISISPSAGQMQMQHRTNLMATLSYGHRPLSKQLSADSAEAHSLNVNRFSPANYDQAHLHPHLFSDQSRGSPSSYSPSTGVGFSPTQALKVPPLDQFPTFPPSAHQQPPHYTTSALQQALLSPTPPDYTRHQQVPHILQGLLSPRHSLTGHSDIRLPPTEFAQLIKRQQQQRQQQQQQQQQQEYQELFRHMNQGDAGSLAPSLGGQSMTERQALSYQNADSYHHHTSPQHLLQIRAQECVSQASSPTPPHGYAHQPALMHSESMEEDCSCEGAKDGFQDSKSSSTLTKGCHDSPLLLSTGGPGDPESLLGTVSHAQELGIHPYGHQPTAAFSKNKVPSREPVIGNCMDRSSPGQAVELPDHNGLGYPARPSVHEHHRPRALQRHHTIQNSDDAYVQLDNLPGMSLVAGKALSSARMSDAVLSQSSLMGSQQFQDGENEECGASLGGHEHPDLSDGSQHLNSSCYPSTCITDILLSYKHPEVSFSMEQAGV
Experimental: as §1, §2, §3

HCT116 tumour cells = test: TNF-sensitised cell viability assay (CellTiter-Glo), HCT116; format: cell-based, human; conditions: for IC50: Homo sapiens, HCT-116, read-out: HCT116 IC50 (at 10 ng/ml rHuTNF), 10 ng/ml rHuTNF, 72 h; for sensitisation of HCT116 tumour cells to the cytotoxic effect of TNF compared to PY1: in words
Experimental: (§4) Cell viability of HCT116 tumour cells was measured using the CellTiter-Glo (CTG) luminescent cell viability assay (Promega, Madison, USA) according to the manufacturer's protocol. In short, 1×10^3 HCT116 cells were seeded in a 384-well plate for 24 h and subsequently treated with different concentrations of compounds and 10 ng/ml rHuTNF for 72 h at 37° C. and 5% CO2. After incubation, CTG reagent was added to the wells and cells were lysed for 10 min. Read-out was performed using the Tecan reader with 0.1 sec counting time. TNF-induced cell killing in human PANC1 and murine MC38 tumour cells was measured analogously to the assay in human HCT116 cells, except that for the PANC1 assay 100 ng/ml rHuTNF and for the MC38 assay 100 ng/ml rMuTNF were used.

PANC1 tumour cells = test: TNF-sensitised cell viability assay (CellTiter-Glo), PANC1; format: cell-based, human; conditions: for IC50: Homo sapiens, PANC-1, read-out: PANC IC50 (at 100 ng/ml rHuTNF), 100 ng/ml rHuTNF, 72 h; for sensitisation of PANC tumour cells to the cytotoxic effects of TNF compared to PY1: in words
Experimental: as §4

MC38 tumour cells = test: TNF-sensitised cell viability assay (CellTiter-Glo), MC38; format: cell-based, murine; conditions: for IC50: Mus musculus, MC-38, read-out: MC38 IC50 (at 100 ng/ml rMuTNF), 100 ng/ml rMuTNF, 72 h
Experimental: as §4

[1] = target: 335 wild-type protein kinases; test: single-point inhibition assays, residual activity (ProQinase Kinase Profiler); format: biochemical; conditions: single-point 0.1 uM and 1 uM, 335 kinases
Experimental: Several compounds of Formula (I) described herein were also tested in single-point (0.1 uM and 1 uM) inhibition assays over a diverse set of 335 wild-type protein (ProQinase “Kinase Profiler”; ProQinase, Freiburg, Germany), in which the residual activity of each kinase was determined. […] Secondly, the residual activity of each kinase was compared to other compounds tested (in particular, against the prior art compounds PY1) by use of scatter plots.

SIK2, sequence (Q9H0K1 whole entry): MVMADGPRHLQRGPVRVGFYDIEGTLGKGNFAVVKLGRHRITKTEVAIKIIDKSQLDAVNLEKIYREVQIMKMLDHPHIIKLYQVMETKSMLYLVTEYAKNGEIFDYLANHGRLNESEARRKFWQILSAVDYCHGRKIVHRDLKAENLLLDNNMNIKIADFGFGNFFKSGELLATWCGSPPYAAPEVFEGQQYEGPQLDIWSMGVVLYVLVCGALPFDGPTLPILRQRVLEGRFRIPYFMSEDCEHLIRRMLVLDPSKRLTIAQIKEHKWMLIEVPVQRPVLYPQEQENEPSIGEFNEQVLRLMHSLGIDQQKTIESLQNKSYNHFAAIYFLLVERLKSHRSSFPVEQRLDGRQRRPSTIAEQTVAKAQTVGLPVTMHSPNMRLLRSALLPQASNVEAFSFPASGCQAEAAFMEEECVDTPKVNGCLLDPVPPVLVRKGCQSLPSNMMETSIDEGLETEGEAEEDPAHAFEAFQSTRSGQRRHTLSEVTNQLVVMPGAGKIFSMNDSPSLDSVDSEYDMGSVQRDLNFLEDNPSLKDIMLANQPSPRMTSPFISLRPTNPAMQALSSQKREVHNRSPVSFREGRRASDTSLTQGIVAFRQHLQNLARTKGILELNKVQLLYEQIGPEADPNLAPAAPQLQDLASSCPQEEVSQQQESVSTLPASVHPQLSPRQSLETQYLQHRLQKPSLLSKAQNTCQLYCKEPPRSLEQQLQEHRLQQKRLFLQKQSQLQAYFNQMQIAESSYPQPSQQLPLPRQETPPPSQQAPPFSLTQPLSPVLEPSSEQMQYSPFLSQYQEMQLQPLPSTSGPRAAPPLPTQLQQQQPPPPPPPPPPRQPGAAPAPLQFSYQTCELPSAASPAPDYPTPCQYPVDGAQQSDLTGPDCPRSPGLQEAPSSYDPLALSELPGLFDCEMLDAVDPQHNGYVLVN

| Structure (SMILES) | IC50 (SIK2) [nM] | IC50 (SIK3) [nM] | kinases inhibited less strongly than by PY1 [1] | IC50 (HCT116 tumour cells) [nM] | sensitisation of HCT116 tumour cells to the cytotoxic effect of TNF compared to PY1 (HCT116 tumour cells) | IC50 (PANC1 tumour cells) [nM] | sensitisation of PANC tumour cells to the cytotoxic effects of TNF compared to PY1 (PANC1 tumour cells) | IC50 (MC38 tumour cells) [nM] | sensitisation of MC38 tumour cells to the cytotoxic effect of TNF (MC38 tumour cells; in words) | inhibiting SIK2 compared to PY1 (SIK2) | inhibiting SIK3 compared to PY1 (SIK3) | selectivity towards SIK3 over SIK2 (SIK3) | kinases inhibited more strongly than by PY1 [1] | overall kinase profile compared to prior art compound PY1 [1] |
| --- | --- | --- | --- | --- | --- | --- | --- | --- | --- | --- | --- | --- | --- | --- |
| COc1ccc(N2C(=O)N(c3c(CF)csc3Cl)Cc3cnc(Nc4ccc(C5CCN(C)C(C)C5)cc4)nc32)nc1 (stereo not drawn) [AA9, 3-(2-chloro-4-(fluoromethyl)thiophen-3-yl)-7-((4-(l,2-dimethylpiperidin-4-yl)phenyl)amino)-1-(5-methoxypyridin-2-yl)-3,4-dihydropyrimido[4,5-d]pyrimidin-2(1H)-one] | < 50 | < 50 |  | < 100 | much stronger effect compared to the prior art compound PY1 | 500 to 1000 |  | 500 to 1000 |  | superior in inhibiting SIK2 and SIK3 compared to PY1 | superior in inhibiting SIK2 and SIK3 compared to PY1 |  |  |  |
| COc1cc(C2CCN(C)CC2)ccc1Nc1ncc2c(n1)N(C)C(=O)N(c1c(CF)csc1Cl)C2 [AA11, 3-(2-chloro-4-(fluoromethyl)thiophen-3-yl)-7-((2-methoxy-4-(1-methylpiperidin-4-yl)phenyl)amino)-1-methyl-3,4-dihydropyrimido[4,5-d]pyrimidin-2(1H)-one] | 100 to 200 | < 50 | BMX, TEC and in particular BTK | > 1500 |  | > 1500 |  | 1000 to 1500 |  |  |  | increased selectively towards SIK3 over SIK2 | BRAF, NEK2, PRK2, PKC, and in particular KIT, RIPK2, ABL2 and PDGF-alpha | substantially different profile of inhibition of the kinases compared to the prior art compound PY1 |
| COCCN1C(=O)N(c2c(CF)csc2Cl)Cc2cnc(Nc3ccc(C4CCN(C)CC4)cc3OC)nc21 [AA12, 3-(2-chloro-4-(fluoromethyl)thiophen-3-yl)-7-((2-methoxy-4-(1-methylpiperidin-4-yl)phenyl)amino)-1-(2-methoxyethyl)-3,4-dihydropyrimido[4,5-d]pyrimidin-2(1H)-one] | < 50 | < 50 |  | > 1500 |  |  |  | 1000 to 1500 |  | superior in inhibiting SIK2 and SIK3 compared to PY1 | superior in inhibiting SIK2 and SIK3 compared to PY1 | increased selectively towards SIK3 over SIK2 |  |  |
| COc1ccc(N2C(=O)N(c3c(C(F)F)csc3Cl)Cc3cnc(Nc4ccc(C5CCN(C)CC5)cc4OC)nc32)nc1 [AA13, 3-(2-chloro-4-(difluoromethyl)thiophen-3-yl)-7-((2-methoxy-4-(1-methylpiperidin-4-yl)phenyl)amino)-1-(5-methoxypyridin-2-yl)-3,4-dihydropyrimido[4,5-d]pyrimidin-2(1H)-one] | 100 to 200 | 100 to 200 |  | > 1500 |  | > 1500 |  | 1000 to 1500 |  |  |  | increased selectively towards SIK3 over SIK2 |  |  |

More lines, main results first:

| IC50 (SIK2) [nM] | IC50 (SIK3) [nM] | kinases inhibited less strongly than by PY1 [1] | Structure (SMILES) | IC50 (HCT116 tumour cells) [nM] | sensitisation of HCT116 tumour cells to the cytotoxic effect of TNF compared to PY1 (HCT116 tumour cells) | IC50 (PANC1 tumour cells) [nM] | sensitisation of PANC tumour cells to the cytotoxic effects of TNF compared to PY1 (PANC1 tumour cells) | IC50 (MC38 tumour cells) [nM] | sensitisation of MC38 tumour cells to the cytotoxic effect of TNF (MC38 tumour cells; in words) | inhibiting SIK2 compared to PY1 (SIK2) | inhibiting SIK3 compared to PY1 (SIK3) | selectivity towards SIK3 over SIK2 (SIK3) | kinases inhibited more strongly than by PY1 [1] | overall kinase profile compared to prior art compound PY1 [1] |
| --- | --- | --- | --- | --- | --- | --- | --- | --- | --- | --- | --- | --- | --- | --- |
| 5000 to 10000 | > 10000 |  | COc1ccc(N2C(=O)N(c3c(C)nn(C)c3C)Cc3cnc(Nc4ccc(C5CCN(C)CC5)cc4OC)nc32)nc1 [AA4, 7-((2-methoxy-4-(l-methylpiperidin-4-yl)phenyl)amino)-1-(5-methoxypyridin-2-yl)-3-(1,3,5-trimethyl-lH-pyrazol-4-yl)-3,4-dihydropyrimido[4,5-d]pyrimidin-2(1H)-one] |  |  |  |  |  |  |  |  |  |  |  |
| 50 to 100 | 100 to 200 |  | COc1ccc(N2C(=O)N(c3c(CF)csc3Cl)Cc3cnc(Nc4ccc(C5CCN(C)CC5)cc4OC)nc32)nc1 [AA7, 3-(2-chloro-4-(fluoromethyl)thiophen-3-yl)-7-((2-methoxy-4-(l-methylpiperidin-4-yl)phenyl)amino)-1-(5-methoxypyridin-2-yl)-3,4-dihydropyrimido[4,5-d]pyrimidin-2(1H)-one] | < 100 | much stronger effect compared to the prior art compound PY1 | 100 to 500 | stronger effect than PY1 | 100 to 500 | surprisingly potent at sensitising cells to the cytotoxic effect of TNF |  |  |  |  |  |
| < 50 | < 50 |  | COc1ccc(N2C(=O)N(c3c(CF)csc3Cl)Cc3cnc(Nc4ccc(C5CC(C)N(C)C(C)C5)cc4)nc32)nc1 (stereo not drawn) [AA8, 3-(2-chloro-4-(fluoromethyl)thiophen-3-yl)-1-(5-methoxypyridin-2-yl)-7-((4-(l,2,6-trimethylpiperidin-4-yl)phenyl)amino)-3,4-dihydropyrimido[4,5-d]pyrimidin-2(lH)-one] | < 100 | much stronger effect compared to the prior art compound PY1 | 100 to 500 | stronger effect than PY1 | 500 to 1000 |  | superior in inhibiting SIK2 and SIK3 compared to PY1 | superior in inhibiting SIK2 and SIK3 compared to PY1 |  |  |  |
| 50 to 100 | 100 to 200 |  | COc1ccc(N2C(=O)N(c3c(CF)csc3Cl)Cc3cnc(Nc4ccc(C5CCN(C)CC5)cc4OC)nc32)cc1 [AA10, 3-(2-chloro-4-(fluoromethyl)thiophen-3-yl)-7-((2-methoxy-4-(1-methylpiperidin-4-yl)phenyl)amino)-1-(4-methoxyphenyl)-3,4-dihydropyrimido[4,5-d]pyrimidin-2(1H)-one] | 1000 to 1500 |  | 1000 to 1500 |  | 1000 to 1500 |  |  |  |  |  |  |
